US10124004B2, “Pyrido[3,4-d]pyrimidine derivative and pharmaceutically acceptable salt thereof” (Teijin Pharma Limited, priority 2015, dated 2018)

Experiments:
[1] = target: T1, CDK4/cyclin D3 (Homo sapiens, UniProt P11802); assay: Human CDK4/cyclin D3 inhibitory activity (QS S Assist CDK4/Cyclin D3_FP Kit, IMAP fluorescence polarization); assay type: biochemical; settings: 50% inhibitory concentration against CDK4/cyclin D3, given as class symbol
T1 construct: purchased Carna Biosciences, Inc. QS S Assist CDK4/Cyclin D3_FP Kit
How it was run: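 Percent inhibition, relative to DMSO with and without enzyme, was curve-fitted to give IC50 from polarization (ex 485, em 535 nm). The 45-min room-temperature reaction used 12.5-25 ng/well enzyme, kit ATP/substrate/metal mix, and HEPES pH 7.4 buffer with Tween20 and DTT, followed by 30-min IMAP binding in the dark.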

[2] = target: T2, CDK2/cyclin A2 (Homo sapiens, UniProt P24941); assay: Human CDK2/cyclin A2 inhibitory activity (QS S Assist CDK2/Cyclin A2_FP Kit, IMAP fluorescence polarization); assay type: biochemical; settings: 50% inhibitory concentration against CDK2/cyclin A2, given as class symbol
T2 construct: purchased Carna Biosciences, Inc. QS S Assist CDK2/Cyclin A2_FP Kit
How it was run: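 Kinase activity read as fluorescence polarization (485/535 nm) after phosphorylated fluorescent substrate binds IMAP reagent (30 min, RT, dark). Enzyme (2.5 ng/well) reacted 60 min at RT with ATP/substrate/metal in HEPES pH 7.4 buffer with Tween 20 and DTT; no-enzyme wells define 0% activity; IC50 by curve fit.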

T1 sequence (P11802 whole entry): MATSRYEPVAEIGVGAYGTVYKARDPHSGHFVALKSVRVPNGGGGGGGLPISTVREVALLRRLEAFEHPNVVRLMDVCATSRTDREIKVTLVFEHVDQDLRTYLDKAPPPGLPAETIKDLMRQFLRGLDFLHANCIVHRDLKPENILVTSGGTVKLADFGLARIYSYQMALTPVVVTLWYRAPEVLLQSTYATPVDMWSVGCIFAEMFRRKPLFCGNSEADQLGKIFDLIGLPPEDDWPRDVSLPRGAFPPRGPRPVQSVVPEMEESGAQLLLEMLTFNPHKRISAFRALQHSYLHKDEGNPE
T1 sequence (P30281 whole entry partner): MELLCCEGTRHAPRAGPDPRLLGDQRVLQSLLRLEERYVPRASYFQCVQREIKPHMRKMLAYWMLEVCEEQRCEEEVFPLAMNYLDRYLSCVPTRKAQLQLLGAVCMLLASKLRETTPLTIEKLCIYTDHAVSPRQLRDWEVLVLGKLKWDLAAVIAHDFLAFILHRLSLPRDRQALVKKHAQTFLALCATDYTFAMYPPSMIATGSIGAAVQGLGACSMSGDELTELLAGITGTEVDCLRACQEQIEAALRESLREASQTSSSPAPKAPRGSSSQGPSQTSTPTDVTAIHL

| Structure (SMILES) | IC50 [1] [nM] | IC50 [2] [nM] |
| --- | --- | --- |
| CC1(c2cc3cnc(Nc4ccc5c(n4)CCN(C(=O)CO)C5)nc3c(N[C@H]3CC[C@H](O)CC3)n2)COC1 [Compound 1146] | < 10 | ≥ 100 |
| CCNc1nc([C@@H](C)O)cc2cnc(Nc3ccc(CN4CCC(CO)CC4)cn3)nc12 [Compound 1147] | < 10 | ≥ 100 |
| CCCCNc1nc([C@@H](C)O)cc2cnc(Nc3ccc(CN4CCC(CO)CC4)cn3)nc12 [Compound 1148] | < 10 | ≥ 100 |
| C[C@@H](O)c1cc2cnc(Nc3ccc(CN4CCC(CO)CC4)cn3)nc2c(NCC2CC2)n1 [Compound 1149] | < 10 | ≥ 100 |
| C[C@@H](O)c1cc2cnc(Nc3ccc(CN4CCC(CO)CC4)cn3)nc2c(NC2CCC2)n1 [Compound 1150] | < 10 | ≥ 100 |
| C[C@@H](O)c1cc2cnc(Nc3ccc(CN4CCC(CO)CC4)cn3)nc2c(N[C@H]2CC[C@H](O)CC2)n1 [Compound 1151] | < 10 | ≥ 100 |
| C[C@@H](O)c1cc2cnc(Nc3ccc(CN4CCC(CO)CC4)cn3)nc2c(NCC2CCOCC2)n1 [Compound 1152] | < 10 | ≥ 100 |
| CO[C@H](C)c1cc2cnc(Nc3ccc4c(n3)CCN(CCO)C4)nc2c(N[C@H]2CC[C@H](O)CC2)n1 [Compound 1153] | < 10 | ≥ 100 |
| OCCN1CCc2nc(Nc3ncc4cc(C5CCOC5)nc(N[C@H]5CC[C@H](O)CC5)c4n3)ccc2C1 (some centres unmarked) [Compound 1154] | < 10 | ≥ 100 |
| CC1(c2cc3cnc(Nc4ccc5c(n4)CCN(CCO)C5)nc3c(N[C@H]3CC[C@H](O)CC3)n2)COC1 [Compound 1155] | < 10 | ≥ 100 |
| C[C@@H](O)c1cc2cnc(Nc3ccc(CN4CCC(CO)CC4)cn3)nc2c(N[C@H]2CCCOC2)n1 [Compound 1156] | < 10 | ≥ 100 |
| CO[C@H](C)c1cc2cnc(Nc3ccc(CN4CCN(C(=O)C5CCCO5)CC4)cn3)nc2c(NC(C)C)n1 (some centres unmarked) [Compound 1157] | 10 to 100 | ≥ 100 |
| CO[C@H](C)c1cc2cnc(Nc3ccc(CN4CCN(C(=O)C5CCOC5)CC4)cn3)nc2c(NC(C)C)n1 (some centres unmarked) [Compound 1158] | < 10 | ≥ 100 |
| CCCNc1nc([C@@H](C)O)cc2cnc(Nc3ccc(N4CCC(N(C)C)CC4)nn3)nc12 [Compound 1159] | < 10 | ≥ 100 |
| CC(C)Nc1nc([C@@H](C)O)cc2cnc(Nc3ccc(C(=O)N4CCN(C)CC4)cn3)nc12 [Compound 1160] | < 10 | 10 to 100 |
| CC(C)Nc1nc([C@@H](C)O)cc2cnc(Nc3ccc(C(=O)N4CCC(N(C)C)CC4)cn3)nc12 [Compound 1161] | < 10 | 10 to 100 |
| CC(C)Nc1nc([C@@H](C)O)cc2cnc(Nc3ccc(C(=O)N4CC[C@H](N(C)C)C4)cn3)nc12 [Compound 1162] | < 10 | 10 to 100 |
| CC(C)Nc1nc([C@@H](C)O)cc2cnc(Nc3ccc(C(=O)N4CC[C@@H](N(C)C)C4)cn3)nc12 [Compound 1163] | < 10 | 10 to 100 |
| CC(C)Nc1nc([C@@H](C)O)cc2cnc(Nc3ccc(C(=O)NCCN(C)C)cn3)nc12 [Compound 1164] | < 10 | ≥ 100 |
| CC(C)Nc1nc([C@@H](C)O)cc2cnc(Nc3ccc(C(=O)N4CCN(CCO)CC4)cn3)nc12 [Compound 1165] | < 10 | 10 to 100 |
| CC(C)Nc1nc([C@@H](C)O)cc2cnc(Nc3ccc(C(=O)N4CCNC[C@@H]4C)cn3)nc12 [Compound 1166] | < 10 | ≥ 100 |
| CC(C)Nc1nc([C@@H](C)O)cc2cnc(Nc3ccc(C(=O)N4CCNC[C@H]4C)cn3)nc12 [Compound 1167] | < 10 | 10 to 100 |

| Structure (SMILES) | IC50 [1] [nM] | IC50 [2] [nM] |
| --- | --- | --- |
| CCNc1nc([C@@H](C)O)c(C)c2cnc(Nc3ccc(CN4CCN(CCO)CC4)cn3)nc12 [Compound 1168] | < 10 | ≥ 100 |
| CCNc1nc([C@@H](C)O)cc2cnc(Nc3ccc(CN4CCN(CCO)C(C)(C)C4)cn3)nc12 [Compound 1169] | < 10 | ≥ 100 |
| C[C@@H](O)c1cc2cnc(Nc3ccc(CN4CCN(CCO)CC4)cn3)nc2c(NCC(F)(F)F)n1 [Compound 1170] | < 10 | ≥ 100 |
| C[C@@H](O)c1cc2cnc(Nc3ccc(CN4CCN(CCO)CC4)cn3)nc2c(NC2CC(F)C2)n1 (some centres unmarked) [Compound 1171] | < 10 | ≥ 100 |
| C[C@@H](O)c1cc2cnc(Nc3ccc(N4CCNCC4=O)cn3)nc2c(NC2(C)CC2)n1 [Compound 1173] | < 10 | ≥ 100 |
| C[C@@H](O)c1cc2cnc(Nc3ccc(N4CCNCC4=O)cn3)nc2c(NCC(F)(F)F)n1 [Compound 1174] | < 10 | ≥ 100 |
| C[C@@H](O)c1cc2cnc(Nc3ccc(N4CCNCC4)nn3)nc2c(NC2(C)CC2)n1 [Compound 1175] | < 10 | ≥ 100 |
| CO[C@H](C)c1cc2cnc(Nc3ccc(N4CCN(C(=O)C5CCCO5)CC4)nn3)nc2c(NC(C)C)n1 (some centres unmarked) [Compound 1176] | < 10 | ≥ 100 |
| CO[C@H](C)c1cc2cnc(Nc3ccc(N4CCN(C(=O)C5CCOC5)CC4)nn3)nc2c(NC(C)C)n1 (some centres unmarked) [Compound 1177] | < 10 | ≥ 100 |
| CN(C)CCN1CCc2nc(Nc3ncc4cc(C5CCOC5)nc(N[C@H]5CCCOC5)c4n3)ccc2C1 (some centres unmarked) [Compound 1178] | < 10 | ≥ 100 |
| CN(C)CCN1CCc2nc(Nc3ncc4cc(C5(C)COC5)nc(N[C@H]5CCCOC5)c4n3)ccc2C1 [Compound 1179] | < 10 | ≥ 100 |
| CO[C@H](C)c1cc2cnc(Nc3ccc4c(n3)CCN(CCN(C)C)C4)nc2c(N[C@H]2CC[C@H](O)CC2)n1 [Compound 1180] | < 10 | ≥ 100 |
| CN(C)CCN1CCc2nc(Nc3ncc4cc(C5CCOC5)nc(N[C@H]5CC[C@H](O)CC5)c4n3)ccc2C1 (some centres unmarked) [Compound 1181] | < 10 | ≥ 100 |
| CN(C)CCN1CCc2nc(Nc3ncc4cc(C5(C)COC5)nc(N[C@H]5CC[C@H](O)CC5)c4n3)ccc2C1 [Compound 1182] | < 10 | ≥ 100 |
| CC(C)Nc1nc([C@@H](C)O)cc2cnc(Nc3ccc(N4CCN(C(=O)C5CCCO5)CC4)nn3)nc12 (some centres unmarked) [Compound 1183] | < 10 | ≥ 100 |
| CCCCNc1nc([C@@H](C)O)cc2cnc(Nc3ccc(CN4CCC[C@@H](O)C4)cn3)nc12 [Compound 1185] | < 10 | ≥ 100 |
| CC(C)CNc1nc([C@@H](C)O)cc2cnc(Nc3ccc(CN4CCC[C@@H](O)C4)cn3)nc12 [Compound 1186] | < 10 | ≥ 100 |
| C[C@@H](O)c1cc2cnc(Nc3ccc(CN4CCC[C@@H](O)C4)cn3)nc2c(N[C@H]2CC[C@H](O)CC2)n1 [Compound 1187] | < 10 | ≥ 100 |
| CCCCNc1nc([C@@H](C)O)cc2cnc(Nc3ccc(CN4CCC[C@H](O)C4)cn3)nc12 [Compound 1188] | < 10 | ≥ 100 |
| CC(C)CNc1nc([C@@H](C)O)cc2cnc(Nc3ccc(CN4CCC[C@H](O)C4)cn3)nc12 [Compound 1189] | < 10 | ≥ 100 |
| C[C@@H](O)c1cc2cnc(Nc3ccc(CN4CCC[C@H](O)C4)cn3)nc2c(N[C@H]2CC[C@H](O)CC2)n1 [Compound 1190] | < 10 | ≥ 100 |
